Reference: patent publication US20240252677A1, “ONE-COMPONENT DELIVERY SYSTEM FOR NUCLEIC ACIDS” (The Trustees of the University of Pennsylvania, priority 2021, published 2024)

Key:
HEK293T cells = assay: In vitro Luc-mRNA transfection, luciferase luminescence expression in HEK293T cells; format: cell-based, human; design: unit not given here
Method: In Vitro Transfection Activity of DNPs in Human Embrionic Kidney (HEK) 293T Cells: HEK293T cells were seeded into 96-well plates (20,000 cells/well/200 μL) and cultured for 24 h at 37° C. in 5% CO2 complete cell culture media. Screening experiments were performed with nonoptimized DNPs containing naked nucleoside-modified mRNA (Karikó, et al., Immunity 2005, 23, 165-175; Pardi, et al., Methods Mol. Biol. 2013, 969, 29-42), of molar mass 664,341 encoding firefly luciferase (mRNA-Luc). A constant concentration of mRNA-Luc of 125 ng/well was used. The transIT (TransIT-mRNA transfection Kit from Mirus Bio) and MC3-based LNPs (MC3: DLin-MC3-DMA, which is the FDA approved LNP for mRNA delivery) were used as positive controls for cell transfection at a concentration of mRNA-Luc of 125 ng/well, identical to that of the tested DNPs. Subsequently cells were cultured for 24 h, the medium was aspirated under reduced pressure by a glass pipette and cells were lysed with 30 μL/well of cell culture lysis reagent (Promega). The luminescence intensity corresponding to the luciferase protein expressed was characterized and analyzed.
In vitro mRNA Delivery: Human embryonic kidney (HEK) 293T cells (American Type Culture Collection) were cultured in Dulbecco's modified Eagle's medium (DMEM) supplemented with 10% inactivated fetal bovine serum (FBS) (Gemini Bio-Products), 2 mM L-glutamine and 100 U/mL penicillin/streptomycin (Life Technologies) (complete medium). For in vitro screening experiments, HEK293T cells were seeded into 96-well plates (20,000 cells/well/200 μL) and cultured for 24 h in at 37° C. and 5% CO2 in complete media. Cell were transfected with IAJDs with encapsulated naked nucleoside-modified mRNA encoding firefly luciferase (mRNA-Luc) with fixed concentration of mRNA-Luc, 125 ng per well. The transIT (TransIT®-mRNA Transfection Kit, Mirus Bio) was used as a positive control for cell transfection, accordingly per manufacturer protocol and added to cells at the concentration of mRNA-Luc, 125 ng per well, the same as for tested particles. Cells were further cultured for 24 h, then medium was aspirated, and cells were lysed with 30 μL/well of cell culture lysis reagent (Promega). For the characterization of luminescence intensity, 2.5 μL of the lysed cells was mixed with 10 μL of luciferase assay substrate and luminescence was analyzed using a MiniLumat LB 9506 luminometer (Berthold/EG&G; Wallac).
Luminescence characterization for in vitro transfection experiments was performed by determining the luminescence intensity for in vitro Luc-mRNA transfection experiments using a MiniLumat LB 9506 luminometer (Berthold/EG&G; Wallac).
For in vitro Luc-mRNA transfection screening experiments, human embryonic kidney 293 cells (HEK 293) were seeded into 96-well plates (20,000 cells/well/200 μL) and cultured for 18-20 hours at 37° C., 5% CO2 in complete Dulbecco's modified Eagle's medium (DMEM) supplemented with 2 mM L-glutamine (Life Technologies), 100 U/mL penicillin/streptomycin (Invitrogen) and 10% fetal bovine serum (FBS, Gemini Bio-Products). Cells were transfected with DNPs with encapsulated naked nucleoside-modified mRNA encoding firefly luciferase (Luc-mRNA) at constant concentration of Luc-mRNA, 125 ng per well. Luc-mRNA complexed with TransIT (TransIT®-mRNA Transfection Kit, Mirus Bio) or encapsulated in FDA approved MC3-based LNPs were used as positive controls for cell transfection, at the concentration of Luc-mRNA of 125 ng per well, the same as for tested DNPs. After transfection cells were further cultured at 37° C., 5% CO2 for 18-20 hours, then medium was aspirated and cells were lysed with luciferase cell culture lysis reagent (30 μL/well) (Promega, Madison, WI). […]

[1] = pKa measurements of individual IAJD molecules by titration; format: physicochemical; conditions: ethanol saturated with NaCl, titrated with 0.1 M aqueous HCl, titration
Method: pKa measurements of individual IAJD Molecules was performed as follows. IAJD Molecules were first dissolved in ethanol (Sat. with NaCl) at a concentration of 1.5 mg/mL and the solution volume was 3 mL.
Then 0.1 M HCl solution was added to the above ethanol solution with an increment of 7.5 μL. The resulting pH after each addition of HCl solution was measured by an Thermo Scientific Orion Star A121 meter with Thermo Scientific Orion 8220BNWP pH probe. pKa was determined using the half equivalence point titration.

[2] = Stability of DNPs by DLS after storage at 5° C.; format: physicochemical; design: key: Excellent: the original sizes and distribution types remained almost the same after storage; Good: the original sizes and distribution types changed slightly (size difference was less than 100 nm) or the original size remained almost the same but the DLS curve showed more size distributions after storage
Method: The stability of the DNPs as assayed by DLS. All the samples are prepared in acetate buffer. The stabilities of the constructs were ranked: Excellent (in bold)—the original sizes and distribution remains almost the same after storage; Good—the original relatively big sizes became smaller or broad size distribution became narrower; Not stable—the original relatively big sizes or broad size distribution remained almost the similar level, or the original relatively small sizes became bigger or narrow size distribution became broader.

[3] = Acetate buffer 10 mM pH 4.0, CIAJD 4 mg/mL, CLuc-mRNA 0.05 mg/mL, HEK293T, 125 ng/well
[4] = Citrate buffer 10 mM pH 3.0, CIAJD 4 mg/mL, CLuc-mRNA 0.05 mg/mL, HEK293T, 125 ng/well
[5] = HEK293T cells, Luc-mRNA 125 ng/well, n=3
[6] = Table 15, individual IAJD molecule
[7] = Table 16, HEK 293T cells, 125 ng/well, n=3

3,5-Bis(dodecyloxy)benzyl 3-(4-methylpiperazin-1-yl)propanoate [IAJD 84]
Luminescence (HEK293T cells; [3]): 3,876
Luminescence (HEK293T cells; Acetate buffer 10 mM pH 5.2, CIAJD 4 mg/mL, CLuc-mRNA 0.10 mg/mL, HEK293T, 125 ng/well): 18,268
Luminescence (HEK293T cells; [4]): 819

CCCCCCCCCCCCOc1cc(COC(=O)CCCN2CCCCC2)cc(OCCCCCCCCCCCC)c1 [IAJD 65, 3,5-Bis(dodecyloxy)benzyl 4-(piperidin-1-yl)butanoate]
Luminescence (HEK293T cells; [5]): 18
pKa [1, 6]: 7.4

CCCCCCCCCCCCOc1ccc(COC(=O)CCCN2CCN(C)CC2)cc1OCCCCCCCCCCCC [IAJD 78, 3,4-Bis(dodecyloxy)benzyl 4-(4-methylpiperazin-1-yl)butanoate]
Luminescence (HEK293T cells; [5]): 8,688
pKa [1, 6]: 6.46

CCCCCCCCCCCCOc1cc(COC(=O)CCCN2CCN(C)CC2)cc(OCCCCCCCCCCCC)c1OCCCCCCCCCCCC [IAJD 79, 3,4,5-Tris(dodecyloxy)benzyl 4-(4-methylpiperazin-1-yl)butanoate]
Luminescence (HEK293T cells; [5]): 27,615
pKa [1, 6]: 6.25

CCCCCCCCCCCCOCC(COCCCCCCCCCCCC)(COCCCCCCCCCCCC)COC(=O)CCCN1CCN(C)CC1 [IAJD 82, 3-(Dodecyloxy)-2,2-bis((dodecyloxy)methyl)propyl 4-(4-methylpiperazin-1-yl)butanoate]
Luminescence (HEK293T cells; [5]): 17
pKa [1, 6]: 6.18

CCCCCCCCCCCCOCC(COCCCCCCCCCCCC)(COCCCCCCCCCCCC)COC(=O)CCCN1CCN(CCO)CC1 [IAJD 83, 3-(Dodecyloxy)-2,2-bis((dodecyloxy)methyl)propyl 4-(4-(2-hydroxyethyl)piperazin-1-yl)butanoate]
Luminescence (HEK293T cells; [5]): 68,691
pKa [1, 6]: 6.3

CCCCCCCCCCCCOc1cc(COC(=O)CCN2CCN(C)CC2)cc(OCCCCCCCCCCCC)c1 [IAJD 84, 3,5-Bis(dodecyloxy)benzyl 3-(4-methylpiperazin-1-yl)propanoate]
Luminescence (HEK293T cells; [5]): 205
pKa [1, 6]: 6.19

CCCCCCCOC(=O)CCCCOc1cc(COC(=O)CCCN2CCN(C)CC2)cc(OCCCCC(=O)OCCCCCCC)c1 [IAJD 85, Diheptyl 5,5′-((5-(((4-(4-methylpiperazin-1-yl)butanoyl)oxy)methyl)-1,3-phenylene)bis(oxy)) dipentanoate]
Luminescence (HEK293T cells; [5]): 47,369
pKa [1, 6]: 6.21

CCCCC(CC)COC(=O)CCCCOc1cc(COC(=O)CCCN2CCN(CCO)CC2)cc(OCCCCC(=O)OCC(CC)CCCC)c1 (stereo not drawn) [IAJD 95]
Luminescence (HEK293T cells; [5]): 153,564
pKa [1, 6]: 6.33

CCCCC(CC)COc1cc(COC(=O)CCCN2CCN(C)CC2)cc(OCC(CC)CCCC)c1OCC(CC)CCCC (stereo not drawn) [IAJD 96, 3,4,5-Tris((2-ethylhexyl)oxy)benzyl 4-(4-methylpiperazin-1-yl)butanoate]
Luminescence (HEK293T cells; [5]): 22,799
pKa [1, 6]: 6.32

CCCCC(CC)COc1cc(COC(=O)CCCN2CCN(CCO)CC2)cc(OCC(CC)CCCC)c1OCC(CC)CCCC (stereo not drawn) [IAJD 97, 3,4,5-Tris((2-ethylhexyl)oxy)benzyl 4-(4-(2-hydroxyethyl)piperazin-1-yl)butanoate]
Luminescence (HEK293T cells; [5]): 342,016
pKa [1, 6]: 6.46

CCCCC(CC)COc1ccc(COC(=O)CCCN2CCN(C)CC2)cc1OCC(CC)CCCC (stereo not drawn) [IAJD 103, 3,4-Bis((2-ethylhexyl)oxy)benzyl 4-(4-methylpiperazin-1-yl)butanoate]
Luminescence (HEK293T cells; [5]): 19
pKa [1, 6]: 6.23

CCCCCCCCCCCCCCOc1cc(CNC(=O)CCCN2CCN(C)CC2)cc(OCCCCCCCCCCCCCC)c1 [IAJD 108, N-(3,5-bis(tetradecyloxy)benzyl)-4-(4-methylpiperazin-1-yl)butanamide]
Luminescence (HEK293T cells; [5]): 136,424
pKa [1, 6]: 6.59

CCCCCCCCCCCCOc1cc(COC(=O)c2cc(OCCOCCOCCCC(=O)CCCN3CCCCC3)c(OCCOCCOCCOCc3ccccc3)c(OCCOCCOCCOC(=O)CCCN3CCCCC3)c2)cc(OCCCCCCCCCCCC)c1 [IAJD 110]
Luminescence (HEK293T cells; [7]): 47
pKa ([1]; individual IAJD molecules): 7.64
Ranking of stability ([2]; after 75 days at 5° C.): Excellent

CCCCCCCCCCCOc1cc(COC(=O)c2cc(OCCOCCOCCCC(=O)CCCN3CCCCC3)c(OCCOCCOCCOCc3ccccc3)c(OCCOCCOCCOC(=O)CCCN3CCCCC3)c2)cc(OCCCCCCCCCCC)c1 [IAJD 111]
Luminescence (HEK293T cells; [7]): 41
pKa ([1]; individual IAJD molecules): 7.58
Ranking of stability ([2]; after 75 days at 5° C.): Excellent

CCCCCCCCCCCOc1cc(COC(=O)CCCN2CCN(CCO)CC2)cc(OCCCCCCCC)c1 [IAJD 113, 3-(Octyloxy)-5-(undecyloxy)benzyl 4-(4-(2-hydroxyethyl)piperazin-1-yl)butanoate]
Luminescence (HEK293T cells; [7]): 78,118
pKa ([1]; individual IAJD molecules): 6.52
Ranking of stability ([2]; after 70 days at 5° C.): Excellent

CCCCCCCCCCCOc1cc(COC(=O)CCCN2CCN(C)CC2)cc(OCCCCCCCCCC)c1 [IAJD 114, 3-(Decyloxy)-5-(undecyloxy)benzyl 4-(4-methylpiperazin-1-yl)butanoate]
Luminescence (HEK293T cells; [7]): 1,580
pKa ([1]; individual IAJD molecules): 6.43
Ranking of stability ([2]; after 75 days at 5° C.): Good

CCCCCCCCCCCOc1cc(COC(=O)CCCN2CCN(CCO)CC2)cc(OCCCCCCCCCC)c1 [IAJD 115, 3-(Decyloxy)-5-(undecyloxy)benzyl 4-(4-(2-hydroxyethyl)piperazin-1-yl)butanoate]
Luminescence (HEK293T cells; [7]): 390,021
pKa ([1]; individual IAJD molecules): 6.32
Ranking of stability ([2]; after 70 days at 5° C.): Excellent

CCCCCCCCCCCCCOc1cc(COC(=O)CCCN2CCN(C)CC2)cc(OCCCCCCCCCCC)c1 [IAJD 116, 3-(Tridecyloxy)-5-(undecyloxy)benzyl 4-(4-methylpiperazin-1-yl)butanoate]
Luminescence (HEK293T cells; [7]): 192,213
pKa ([1]; individual IAJD molecules): 6.51
Ranking of stability ([2]; after 62 days at 5° C.): Excellent

CCCCCCCCCCCCCOc1cc(COC(=O)CCCN2CCN(CCO)CC2)cc(OCCCCCCCCCCC)c1 [IAJD 117, 3-(Tridecyloxy)-5-(undecyloxy)benzyl 4-(4-(2-hydroxyethyl)piperazin-1-yl)butanoate]
Luminescence (HEK293T cells; [7]): 516,522
pKa ([1]; individual IAJD molecules): 6.49
Ranking of stability ([2]; after 70 days at 5° C.): Excellent

Diheptyl 5,5′-((5-(((4-(4-methylpiperazin-1-yl)butanoyl)oxy)methyl)-1,3-phenylene)bis(oxy)) dipentanoate [IAJD 85]
Luminescence (HEK293T cells; [3]): 734
Luminescence (HEK293T cells; Acetate buffer 10 mM pH 4.0, CIAJD 4 mg/mL, CLuc-mRNA 0.10 mg/mL, HEK293T, 125 ng/well): 2,498
Luminescence (HEK293T cells; [4]): 1,176
